Data on 16 molecules can be found in US8642799B2, “Cysteine protease inhibitors for the treatment of parasitic diseases” (Merck Canada Inc., priority 2007, dated 2014).

Molecules are shown by their SMILES.

As usually defined, the IC50 is the concentration needed to halve the response being measured. Low readings indicate greater potency in that assay, high ones weaker potency in that assay.

Chain of cruzipain (P25779 123-467): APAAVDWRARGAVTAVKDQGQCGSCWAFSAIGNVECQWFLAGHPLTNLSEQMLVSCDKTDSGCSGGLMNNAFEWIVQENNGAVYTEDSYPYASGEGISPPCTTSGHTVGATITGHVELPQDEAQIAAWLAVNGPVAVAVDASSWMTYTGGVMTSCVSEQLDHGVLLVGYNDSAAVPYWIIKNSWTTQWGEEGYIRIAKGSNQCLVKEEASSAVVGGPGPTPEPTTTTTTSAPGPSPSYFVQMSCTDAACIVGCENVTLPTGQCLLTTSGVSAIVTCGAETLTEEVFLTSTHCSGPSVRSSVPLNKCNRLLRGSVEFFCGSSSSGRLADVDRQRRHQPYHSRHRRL

This test addresses cruzipain (Trypanosoma cruzi, UniProt P25779). Nature of the test: biochemical. The conditions noted are these: 50 pM cruzipain, pH 5.5, 15 minutes preincubation, 2 μM Z-Phe-Arg-AMC substrate. As for the experimental part:
The assay solutions were mixed and incubated for 15 minutes at room temperature prior to the addition of 2 μM of Z-Phe-Arg-AMC substrate. […] Percent of inhibition were calculated by fitting experimental values to standard mathematical model for dose response curve.
The molecule `CC(C)(F)C[C@H](N[C@@H](c1ccc(-c2ccc(S(C)(=O)=O)cc2)cc1)C(F)(F)F)C(=O)N[C@H](C#N)Cc1cccnc1` [Example 64, (S)-4-Fluoro-4-methyl-2-[(S)-2,2,2-trifluoro-1-(4′-methanesulfonyl-biphenyl-4-yl)-ethylamino]-pentanoic acid ((S)-cyano-pyridin-3-ylmethyl-methyl)-amide] displayed an IC50 of 12.6 nM. The molecule `CC(C)(F)C[C@H](N[C@@H](c1ccc(-c2ccc(S(C)(=O)=O)cc2)cc1)C(F)(F)F)C(=O)N[C@H](C#N)Cc1ccccc1F` [Example 17, (S)-Fluoro-4-methyl-2-[(S)-2,2,2-trifluoro-1-(4′-methanesulfonyl-biphenyl-4-yl)-ethylamino]-pentanoic acid [(S)-1-cyano-2-(2-fluoro-phenyl)-ethyl]-amide] returned an IC50 of 0.9 nM.

Take `CC(C)C[C@H](N[C@@H](c1ccc(-c2ccc(S(C)(=O)=O)cc2)cc1)C(F)(F)F)C(=O)NC(C#N)Cc1ccc(C#N)cc1` (stereo partly drawn) [Example 8, (S)-4-Methyl-2-[(S)-2,2,2-trifIuoro-1-(4′-methanesulfonyl-biphenyl-4-yl)-ethylamino]-pentanoic acid [1-cyano-2-(4-cyano-phenyl)-ethyl]-amide]: the IC50 worked out at 0.2 nM.

In turn, `COC(=O)CNC(=O)C1(c2ccc(-c3ccc([C@H](N[C@@H](CC(C)(C)F)C(=O)N[C@H](C#N)Cc4ccccc4)C(F)(F)F)cc3)cc2)CC1` [Example 53, ({1-[4′-((S)-1-{(S)-1-[((S)-Benzyl-cyano-methyl)-carbamoyl]-3-fluoro-3-methyl-butylamino}-2,2,2-trifluoro-ethyl)-biphenyl-4-yl]-cyclopropanecarbonyl}-amino)-acetic acid methyl ester] gave an IC50 of 3.1 nM.

`CC(C)(F)C[C@H](N[C@@H](c1ccc(-c2ccc(S(C)(=O)=O)cc2)cc1)C(F)(F)F)C(=O)N[C@H](C#N)Cc1cc[n+]([O-])cc1` [Example 75, (S)-4-Fluoro-4-methyl-2-[(S)-2,2,2-trifluoro-1-(4′-methanesulfonyl-biphenyl-4-yl)-ethylamino]-pentanoic acid [(S)-cyano-(1-oxy-pyridin-4-ylmethyl)-methyl]-amide] gave a half-maximal inhibitory concentration (IC50) of 120 nM. As for `CC(C)(F)C[C@H](N[C@@H](c1ccc(-c2ccc(S(C)(=O)=O)cc2)cc1)C(F)(F)F)C(=O)N[C@H](C#N)Cc1cccc[n+]1[O-]` [Example 65, (S)-4-Fluoro-4-methyl-2-[(S)-2,2,2-trifluoro-1-(4′-methanesulfonyl-biphenyl-4-yl)-ethylamino]-pentanoic acid [(S)-cyano-(1-oxy-pyridin-2-ylmethyl)-methyl]-amide], the IC50 is 15 nM. The molecule `CC(C)(F)C[C@H](N[C@@H](c1ccc(-c2ccc(S(C)(=O)=O)cc2)cc1)C(F)(F)F)C(=O)N[C@H](C#N)Cc1ccc(C(F)(F)F)cc1F` [Example 46, (S)-4-Fluoro-4-methyl-2-[(S)-2,2,2-trifluoro-1-(4′-methanesulfonyl-biphenyl-4-yl)-ethylamino]-pentanoic acid [(S)-cyano-(2-fluoro-4-trifluoromethyl-benzyl)-methyl]-amide] displayed an IC50 of 1.5 nM. `CC(C)(F)C[C@H](N[C@@H](c1ccc(-c2ccc(C3(C(=O)NC4CC4)CC3)cc2)cc1)C(F)(F)F)C(=O)N[C@H](C#N)Cc1ccccc1` [Example 56, 1-[4′-((S)-1-{(S)-1-[((S)-Benzyl-cyano-methyl)-carbamoyl]-3-fluoro-3-methyl-butylamino}-2,2,2-trifluoro-ethyl)-biphenyl-4-yl]-cyclopropanecarboxylic acid cyclopropylamide] came in with an IC50 of 3.7 nM. `CC(C)[C@H](N[C@@H](c1ccc(-c2ccc(S(C)(=O)=O)cc2)cc1)C(F)(F)F)C(=O)N[C@H](C#N)Cc1c(F)cc(Br)cc1F` [Example 70, (S)-N-[(S)-(4-Bromo-2,6-difluoro-benzyl)-cyano-methyl]-3-methyl-2-[(S)-2,2,2-trifluoro-1-(4′-methanesulfonyl-biphenyl-4-yl)-ethylamino]-butyramide]: inhibition was half-maximal at 0.6 nM (IC50).

Consider `CC(C)[C@H](N[C@@H](c1ccc(-c2ccc(C3(C(=O)O)CC3)cc2)cc1)C(F)(F)F)C(=O)N[C@H](C#N)Cc1ccc(C#N)cc1F` [Example 58, 1-{4′-[(S)-1-((S)-1-{[(S)-Cyano-(4-cyano-2-fluoro-benzyl)-methyl]-carbamoyl}-2-methyl-propylamino)-2,2,2-trifluoro-ethyl]-biphenyl-4-yl}-cyclopropanecarboxylic acid], for which the 50% inhibitory concentration (IC50) is 0.3 nM.

On to `CC(C)(F)C[C@H](N[C@@H](c1ccc(-c2ccc(C3(C(N)=O)CC3)cc2)cc1)C(F)(F)F)C(=O)N[C@H](C#N)Cc1ccc(C#N)cc1F` [Example 38, 1-[4′-((S)-1-{(S)-1-[(S)-1-Cyano-2-(4-cyano-2-fluoro-phenyl)-ethylcarbamoyl]-3-fluoro-3-methyl-butylamino}-2,2,2-trifluoro-ethyl)-biphenyl-4-yl]-cyclopropanecarboxylic acid amide], for which inhibition was half-maximal at 0.3 nM (IC50). In the case of `Cn1cccc1-c1ccc([C@H](N[C@@H](CC(C)(C)F)C(=O)N[C@H](C#N)Cc2ccccc2)C(F)(F)F)cc1` [Example 35, (S)-4-Fluoro-4-methyl-2-{(S)-2,2,2-trifluoro-1-[4-(1-methyl-1H-pyrrol-2-yl)-phenyl]-ethylamino}-pentanoic acid ((S)-1-cyano-2-phenyl-ethyl)-amide], it took 12.2 nM to reach half-maximal inhibition (IC50).

As to `N#Cc1ccc(C[C@@H](C#N)NC(=O)[C@@H](N[C@@H](c2ccc(-c3ccc([C@@H](O)C(F)F)cc3)cc2)C(F)(F)F)C2CC2)c(F)c1` [Example 69, (S)-N-[(S)-Cyano-(4-cyano-2-fluoro-benzyl)-methyl]-2-cyclopropyl-2-{(S)-1-[4′-((R)-2,2-difluoro-1-hydroxy-ethyl)-biphenyl-4-yl]-2,2,2-trifluoro-ethylamino}-acetamide], half-maximal inhibition (IC50) required 4.3 nM. Turning to `CSc1ccc(-c2ccc([C@H](N[C@@H](CC(C)(C)F)C(=O)N[C@H](C#N)Cc3ccc(C#N)cc3F)C(F)(F)F)cc2)cc1` [Example 26, (S)-4-Fluoro-4-methyl-2-[(S)-2,2,2-trifluoro-1-(4′-methylsulfanyl-biphenyl-4-yl)-ethylamino]-pentanoic acid [(S)-1-cyano-2-(4-cyano-2-fluoro-phenyl)-ethyl]-amide], the half-inhibitory concentration (IC50) is 4.2 nM.

The molecule `CC(C)[C@H](N[C@@H](c1ccc(-c2ccc(C3(C(=O)NCCO)CC3)cc2)cc1)C(F)(F)F)C(=O)N[C@H](C#N)Cc1ccc(C#N)cc1F` [Example 59, 1-{4′-[(S)-1-((S)-1-{[(S)-Cyano-(4-cyano-2-fluoro-benzyl)-methyl]-carbamoyl}-2-methyl-propylamino)-2,2,2-trifluoro-ethyl]-biphenyl-4-yl}-cyclopropanecarboxylic acid (2-hydroxy-ethyl)-amide] registered an IC50 of 0.1 nM. For `CCOC(=O)c1ccc(C[C@@H](C#N)NC(=O)[C@H](CC(C)(C)F)N[C@@H](c2ccc(-c3ccc(S(C)(=O)=O)cc3)cc2)C(F)(F)F)cc1` [Example 15, 4-((S)-2-Cyano-2-{(S)-4-fluoro-4-methyl-2-[(S)-2,2,2-trifluoro-1-(4′-methanesulfonyl-biphenyl-4-yl)-ethylamino]-pentanoylamino}-ethyl)-benzoic acid ethyl ester], the 50% inhibitory concentration (IC50) was 4.4 nM.
